From US20200261398A1, “METHOD FOR FIRST-LINE TREATMENT OF ROSACEA” (Sol-Gel Technologies Ltd., priority 2019, published 2020)

Columns and labels:
rosacea = settings: BPO as the sole active agent (Gul 2008); cited from earlier work
[1] = system: patients afflicted with papulopustular rosacea; assay: Inflammatory lesion (papules, pustules) count, 12-week vehicle-controlled study of E-BPO 5% cream; assay type: in vivo, human
Procedure: (§1) A multi-center, double-blind, randomized, vehicle-controlled, dose-range study of encapsulated 5% benzoyl peroxide (E-BPO) Cream and vehicle cream was performed to assess the efficacy and safety of E-BPO compared to vehicle. Study duration was 12 weeks and included approximately 350 male and female patients afflicted with papulopustular rosacea. Patients were at least 18 years of age, and met the inclusion/exclusion criteria described herein.
Patients were randomized in a 2:1 ratio to the study product or vehicle treatment group, respectively. Patients applied the study product once daily for 12 weeks on the face (chin, left cheek, right cheek, nose, left forehead and right forehead) in a thin layer to provide even distribution, and avoid the eyes, lips, inside the nose, mouth and all mucous membranes.
(§2) Patients were admitted into the study after meeting all inclusion/exclusion criteria, including a clinical diagnosis of rosacea and after written informed consent has been obtained. Subjects with severe rosacea who are appropriate for systemic treatment need to be counseled regarding their treatment options by the Principal Investigator. At each visit, a 5-point IGA scale of rosacea; rosacea erythema, and telangiectasia; and inflammatory (papules, pustules) lesion counts were performed and recorded.
The first application of the test product was applied at the investigational site at the end of the Baseline visit (Day 0) under the supervision and instruction of the designated investigational site staff. The investigator performed the Investigator Global Assessment (IGA) and inflammatory lesion (papules and pustules) counts at Screening, Baseline, and Weeks 4, 8, and 12 (end of study) and erythema and telangiectasia assessments at Baseline, and Weeks 4, 8, and 12 (end of study). The evaluator also assessed local application site irritation (dryness, scaling, pruritus, stinging and burning) at Baseline and Weeks 2, 4, 8 and 12 (end of study). At selected investigational site(s), standardized photography of facial rosacea also was performed at Baseline and Week 8 and 12 (end of study).
The absolute change (primary measure of success) and percent change (secondary measure of success) from baseline of inflammatory lesions was derived for each patient at Weeks 2, 4, 8 and 12. The IGA was recorded for each patient at Baseline, Weeks 2, 4, 8 and 12. Weeks 2, 4, 8 and 12 with a patient were considered a success for those visits if the IGA was at least 2 grades less than baseline and are Clear or Almost Clear. Data from two sets of experiments—Drug 01+Vehicle 01 and Drug 02+Vehicle 02—are included herewith for each measurement
The proportions of subjects with a secondary measure of success (defined as change in the mean inflammatory lesion count from Baseline to Weeks 2, 4, 8 and 12) are shown in Tables 2A, 2B, 3A and 3B, and FIGS. 2 and 3.

[2] = system: patients afflicted with papulopustular rosacea; assay: Investigator Global Assessment (IGA) success, 12-week vehicle-controlled study of E-BPO 5% cream; assay type: in vivo, human
Procedure: as §1
Patients were randomized in a 2:1 ratio to the study product or vehicle treatment group, respectively. […]
as §2, with “Subjects with severe rosacea who are appropriate for systemic treatment need to be counseled regarding their treatment options by the Principal Investigator.” left out
(§3) The first application of the test product was applied at the investigational site at the end of the Baseline visit (Day 0) under the supervision and instruction of the designated investigational site staff. […] The evaluator also assessed local application site irritation (dryness, scaling, pruritus, stinging and burning) at Baseline and Weeks 2, 4, 8 and 12 (end of study). […]

[3] = system: patients afflicted with papulopustular rosacea; assay: Cutaneous Safety Assessment (dryness, scaling) and Local Tolerability Assessment (itching, burning/stinging), 12-week study of E-BPO 5% cream; assay type: in vivo, human; settings: studies described herein
Procedure: Safety was assessed at all visits, and will include monitoring of local adverse experiences, Investigator Cutaneous Safety Assessment rating of dryness and scaling and Local Tolerability Assessment rating of itching and burning/stinging on a scale ranging from 0 (None) to 3 (Severe); patients complete a Patient Reported Outcomes (PRO) questionnaire at Visit 2, 3, 4, 5 and 6 and Rosacea Quality of Life Questionnaire (RosaQoL) at Baseline and Visit 6 or at early termination. Standardized photography of facial rosacea at Visit 2, 3, 4, 5 and 6 was performed at select site(s).
In addition to IGA, at each visit, the following safety measures were recorded: monitoring for any AE (adverse effects) including local and systemic; investigator Cutaneous Safety Assessment rating of erythema, dryness and scaling and Local Tolerability Assessments rating of itching and burning/stinging on a scale ranging from 0 (None) to 3 (Severe).
as §3

[4] = after at least 12 weeks of treatment

In the case of `O=C(OOC(=O)c1ccccc1)c1ccccc1` [BPO, Benzoyl peroxide], the response of lesions (rosacea) is given as “unresponsive”, the “decrease in inflammatory lesions” value [1, 4] is given as “over 69%” and the “decrease in inflammatory lesions relative to effect of vehicle cream” value [1, 4] is given as “more than 1.5 ×”. For the same compound, the “decrease in inflammatory lesions, on average” value ([1]; after only 2 weeks of treatment) was “about 40%”, the “decrease in inflammatory lesions” value ([1]; in 4 weeks) was “over 58%” and the “decrease in inflammatory lesions” value ([1]; in 8 weeks) was “about 70%”. For the same compound, the “success in IGA” value ([2]; after 2 weeks of BPO-treatment) was “about 10%”, the “success in IGA” value ([2]; after only 4 weeks of treatment) was “about 25%” and the “percentage of patients reporting no subcutaneous reactions compared with vehicle” value [3] was “comparable, and for some conditions, surprisingly, higher”.
